Test results taken from ChEMBL document CHEMBL1201862, “PubChem BioAssay data set” (2004).
Calls of active or inactive are those of the source.

Tests used:
[1] = test system: Streptococcus sp. 'group A'; experiment: Streptococcus pyogenes SK(-)GAS viability under kanamycin – luminescence, BacTiterGlo, confirmation, counter-screen for streptokinase expression inhibitor project, dose response (AID 1900); format: functional, organism-based
BJ [2] = experiment: BJ-TERT fibroblast viability loss – cell-based, RAS-independent, luminescence, dose response (AID 1933); format: functional; conditions: Homo sapiens
[3] = biological target: T1, Voltage-gated N-type calcium channel alpha-1B subunit/Amyloid beta A4 precursor protein-binding family A member 1 (Homo sapiens, UniProt Q00975+Q02410); format: protein assay
Streptokinase A = biological target: T2, Streptokinase A (Streptococcus pyogenes serotype M1, UniProt P10520); experiment: viability-normalized secreted streptokinase activity reduction – plasminogen activation absorbance, OD405, dose response (AID 1914); format: functional, Streptococcus pyogenes M1 GAS;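 further: secreted streptokinase activity via plasminogen activation per viability signal from cell pellet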
T2 sequence (P10520 whole entry): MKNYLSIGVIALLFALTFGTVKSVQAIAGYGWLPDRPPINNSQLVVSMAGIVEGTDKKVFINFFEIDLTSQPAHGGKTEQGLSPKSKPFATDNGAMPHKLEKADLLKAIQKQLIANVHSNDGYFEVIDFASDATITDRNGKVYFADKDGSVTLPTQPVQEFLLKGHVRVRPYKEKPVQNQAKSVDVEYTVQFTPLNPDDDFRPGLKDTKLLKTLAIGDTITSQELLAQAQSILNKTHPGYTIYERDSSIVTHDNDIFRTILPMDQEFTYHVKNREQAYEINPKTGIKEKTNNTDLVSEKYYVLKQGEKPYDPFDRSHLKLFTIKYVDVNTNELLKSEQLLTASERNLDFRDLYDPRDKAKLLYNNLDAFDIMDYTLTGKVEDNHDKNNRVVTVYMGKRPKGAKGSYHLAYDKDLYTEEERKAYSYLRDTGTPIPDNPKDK

BJ [4] = experiment: cells; format: functional, cell-based; conditions: Homo sapiens
[5] = biological target: T1, Voltage-gated N-type calcium channel alpha-1B subunit/Amyloid beta A4 precursor protein-binding family A member 1; format: protein assay; remark: listed apart in the source
BJ [6] = experiment: BJ-TERT-LT-ST fibroblast viability loss – cell-based, RAS-independent, luminescence, dose response (AID 1935); format: functional; conditions: Homo sapiens;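 further: BJ fibroblasts immortalized with TERT plus LT and ST oncogenes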
[7] = DRD fibroblast viability loss – cell-based, non-viral oncogenic, luminescence, dose response (AID 1934); format: functional; conditions: Homo sapiens
Streptococcus = experiment: GAS UMAA2166 growth inhibition – luminescence, BacTiterGlo, counter-screen for streptokinase expression inhibitor project, dose response (AID 1915); format: functional, organism-based;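 further: potency for reduction of bacterial viability or growth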
[8] = Luminescence Cell-Based Dose Retest to Confirm Inhibitors of Cancer Stem Cells. [Related pubchem assays (depositor defined):AID2717, AID2721]; format: functional; conditions: Homo sapiens
[9] = HEK-293T cell viability reduction – luminescence, B-cell screen hits, cytotoxicity control for BCR NF-kB inhibitor project, dose response (AID 489021); format: functional, cell-based;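 further: HEK-293T cells carrying an NF-kB luciferase reporter; cells exposed to compound for about 14 hours before viability readout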
Galanin receptor type 3 = biological target: T3, Galanin receptor type 3 (Homo sapiens, UniProt O60755); experiment: Fluorescence-based cell-based primary high throughput dose response assay to identify antagonists of the Galanin Receptor 3 (GalR3).; format: functional
T3 sequence (O60755 whole entry): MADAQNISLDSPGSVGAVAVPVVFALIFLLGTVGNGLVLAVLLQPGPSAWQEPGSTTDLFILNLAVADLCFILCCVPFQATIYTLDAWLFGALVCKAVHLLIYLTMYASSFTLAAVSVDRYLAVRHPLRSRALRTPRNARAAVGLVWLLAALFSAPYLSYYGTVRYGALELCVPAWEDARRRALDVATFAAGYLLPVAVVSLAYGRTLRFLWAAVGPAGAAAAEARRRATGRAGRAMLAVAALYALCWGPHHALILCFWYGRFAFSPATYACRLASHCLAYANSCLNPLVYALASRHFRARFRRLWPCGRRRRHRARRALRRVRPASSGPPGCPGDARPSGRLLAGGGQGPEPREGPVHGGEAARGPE

cells = format: functional, cell-based; conditions: HEK-CNG
[10] = A cytotoxicity screen of small molecule inhibitors of the PhoP region in Salmonella typhi identified in the primary screen. [Related pubchem assays: 1850, 1864, 1985 ]; format: functional
[11] = biological target: T4, Neuropeptides B/W receptor type 1 (Homo sapiens, UniProt P48145); experiment: Fluorescence-based dose response cell-based high throughput screening assay to identify antagonists of the G-protein coupled receptor 7 (GPR7). [Related pubchem assays: 1952 (Screening assay (GPR7 antagonists).), 1880 (Summary AID.)]; format: functional
T4 sequence (P48145 whole entry): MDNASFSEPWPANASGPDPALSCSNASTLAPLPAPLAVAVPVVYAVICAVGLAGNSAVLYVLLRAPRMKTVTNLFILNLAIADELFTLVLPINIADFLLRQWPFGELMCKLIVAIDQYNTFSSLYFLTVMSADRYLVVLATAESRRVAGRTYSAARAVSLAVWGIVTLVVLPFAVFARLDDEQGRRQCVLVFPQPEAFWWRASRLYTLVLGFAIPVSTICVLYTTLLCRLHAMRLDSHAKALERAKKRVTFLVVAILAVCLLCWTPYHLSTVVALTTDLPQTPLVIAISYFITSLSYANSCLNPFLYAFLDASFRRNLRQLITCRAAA

[12] = biological target: T5, Melanin-concentrating hormone receptor 1 (Homo sapiens, UniProt Q99705); experiment: Fluorescence-based counterscreen for antagonists of the G-protein coupled receptor 7 (GPR7): cell-based high throughput dose response assay to identify antagonists of the melanin-concentrating hormone receptor 1 (MCHR1).; format: functional
CHO-K1 = experiment: (§1) Counterscreen for antagonists of the orexin 1 receptor (OX1R; HCRTR1): Homogeneous time resolved fluorescence (HTRF)-based cell-based dose response assay to identify antagonists of the parental CHO-K1 cell line. [Related pubchem assays (depositor defined):AID434989, AID435008, AID463079, AID485270, AID492963, AID492964, AID492965, AID493232, AID504699, AID504701]; format: functional; conditions: Cricetulus griseus
[13] = as §1, with “Fluorescence-based” for “Homogeneous time resolved fluorescence (HTRF)-based”, “cell-based high throughput” for “cell-based”, “CHO” for “CHO-K1”; format: functional
[14] = biological target: T6, Orexin/Hypocretin receptor type 1 (Homo sapiens, UniProt O43613); experiment: Homogeneous Time Resolved Fluorescence (HTRF)-based cell-based high throughput dose response assay for antagonists of the orexin 1 receptor (OX1R; HCRTR1). [Related pubchem assays (depositor defined):AID434989, AID435008, AID463079, AID485270, AID492963, AID492964, AID492965, AID493232, AID504717, AID504718]; format: functional
T6 sequence (O43613 whole entry): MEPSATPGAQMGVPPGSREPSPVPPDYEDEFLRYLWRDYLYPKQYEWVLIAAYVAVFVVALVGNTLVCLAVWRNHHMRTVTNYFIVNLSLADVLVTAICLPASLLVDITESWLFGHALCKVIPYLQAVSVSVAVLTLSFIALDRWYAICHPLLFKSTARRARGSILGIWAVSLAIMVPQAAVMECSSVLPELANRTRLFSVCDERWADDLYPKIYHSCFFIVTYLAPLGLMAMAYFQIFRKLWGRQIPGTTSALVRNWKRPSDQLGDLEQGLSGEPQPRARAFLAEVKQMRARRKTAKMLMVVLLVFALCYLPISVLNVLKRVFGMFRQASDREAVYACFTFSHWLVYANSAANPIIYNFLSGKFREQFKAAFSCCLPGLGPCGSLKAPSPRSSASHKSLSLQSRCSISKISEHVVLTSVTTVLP

[15] = biological target: T6, Orexin/Hypocretin receptor type 1; experiment: Fluorescence-based cell-based high throughput dose response assay for antagonists of the orexin 1 receptor (OX1R; HCRTR1). [Related pubchem assays (depositor defined):AID434989, AID435008, AID463079, AID485270, AID492963, AID492964, AID492965, AID493232, AID504717, AID504718]; format: functional
[16] = biological target: T5, Melanin-concentrating hormone receptor 1; experiment: Late-stage fluorescence-based counterscreen for antagonists of the G-protein coupled receptor 7 (GPR7): cell-based dose response assay to identify antagonists of the melanin-concentrating hormone receptor 1 (MCHR1). [Related pubchem assays (depositor defined):AID1861, AID1880, AID1952, AID2148, AID2251, AID2257, AID485339]; format: functional
[17] = A Cell Based Secondary Assay To Explore Cytotoxicity of Compounds that Sensitize Mycobacterium Tuberculosis to Beta-Lactam Antibiotics.; format: functional
[18] = biological target: T7, Calpain-2 catalytic subunit (Sus scrofa, UniProt P43367); experiment: m-calpain protease blockers, concentration series – biochemical, fluorogenic peptide substrate, dose response (AID 1420); format: functional
T7 sequence (P43367 whole entry): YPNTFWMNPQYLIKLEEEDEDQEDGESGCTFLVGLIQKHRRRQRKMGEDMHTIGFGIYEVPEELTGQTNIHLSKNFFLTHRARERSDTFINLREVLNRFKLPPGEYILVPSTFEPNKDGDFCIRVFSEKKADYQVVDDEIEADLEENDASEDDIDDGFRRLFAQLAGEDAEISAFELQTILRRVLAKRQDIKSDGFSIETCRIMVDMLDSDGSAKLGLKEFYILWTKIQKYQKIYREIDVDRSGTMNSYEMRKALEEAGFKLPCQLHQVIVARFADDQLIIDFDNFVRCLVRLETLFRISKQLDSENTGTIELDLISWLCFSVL

[19] = biological target: T8, Mannose-6-phosphate isomerase (Homo sapiens, UniProt P34949); experiment: MPI inhibition at elevated mannose 6-phosphate – biochemical, fluorescence intensity, high mannose 6-phosphate, primary screen (AID 1220)
T8 sequence (P34949 whole entry): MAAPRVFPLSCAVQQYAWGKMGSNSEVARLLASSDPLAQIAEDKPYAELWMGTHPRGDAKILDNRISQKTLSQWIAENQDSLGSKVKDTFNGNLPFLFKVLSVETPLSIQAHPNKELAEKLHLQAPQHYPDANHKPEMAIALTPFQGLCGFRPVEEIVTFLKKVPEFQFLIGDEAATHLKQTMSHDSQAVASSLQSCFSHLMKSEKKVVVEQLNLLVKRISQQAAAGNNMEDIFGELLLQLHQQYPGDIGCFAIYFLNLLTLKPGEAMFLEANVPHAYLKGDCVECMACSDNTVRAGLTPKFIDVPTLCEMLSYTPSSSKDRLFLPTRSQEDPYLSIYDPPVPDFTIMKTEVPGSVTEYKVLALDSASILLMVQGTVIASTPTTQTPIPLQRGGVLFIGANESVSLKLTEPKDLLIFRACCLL

[20] = biological target: FAD-linked sulfhydryl oxidase ALR (Homo sapiens, UniProt P55789); experiment: ALR-catalysed DTT oxidation blockers – biochemical, H2O2 detection, luminescence, cherry-pick, dose response (AID 493248)
Trypsin = Trypsin (Sus scrofa, UniProt P00761); experiment: trypsin protease activity blockade – biochemical, quenched peptide fluorescence, cherry-pick, selectivity assay for Rce1 protease inhibitor project, dose response (AID 488789)
CAAX prenyl protease 2 = biological target: T9, CAAX prenyl protease 2 (Homo sapiens, UniProt Q9Y256); experiment: inhibition of Ras-converting CAAX protease Rce1 – biochemical, yeast membranes, quenched-peptide fluorescence, cherry-pick, dose response (AID 588849)
T9 sequence (Q9Y256 whole entry): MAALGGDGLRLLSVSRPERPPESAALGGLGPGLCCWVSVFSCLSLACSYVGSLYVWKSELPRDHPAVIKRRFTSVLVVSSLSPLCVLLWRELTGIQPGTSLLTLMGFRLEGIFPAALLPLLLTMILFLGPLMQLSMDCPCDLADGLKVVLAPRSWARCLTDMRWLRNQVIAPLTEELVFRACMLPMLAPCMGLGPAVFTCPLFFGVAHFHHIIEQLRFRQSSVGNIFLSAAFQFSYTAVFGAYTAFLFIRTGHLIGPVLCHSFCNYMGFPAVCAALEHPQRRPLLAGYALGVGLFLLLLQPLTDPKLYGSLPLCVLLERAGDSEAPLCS

T5 sequence (Q99705 whole entry): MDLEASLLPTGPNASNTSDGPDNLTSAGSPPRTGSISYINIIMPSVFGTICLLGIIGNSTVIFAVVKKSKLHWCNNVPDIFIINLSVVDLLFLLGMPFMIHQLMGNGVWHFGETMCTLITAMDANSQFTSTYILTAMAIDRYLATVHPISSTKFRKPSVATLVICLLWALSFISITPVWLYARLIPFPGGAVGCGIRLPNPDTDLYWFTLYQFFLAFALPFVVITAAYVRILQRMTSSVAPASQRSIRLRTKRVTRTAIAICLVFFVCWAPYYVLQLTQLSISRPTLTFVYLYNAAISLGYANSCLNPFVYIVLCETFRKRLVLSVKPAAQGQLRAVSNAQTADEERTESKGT
T1 sequence (Q00975 whole entry): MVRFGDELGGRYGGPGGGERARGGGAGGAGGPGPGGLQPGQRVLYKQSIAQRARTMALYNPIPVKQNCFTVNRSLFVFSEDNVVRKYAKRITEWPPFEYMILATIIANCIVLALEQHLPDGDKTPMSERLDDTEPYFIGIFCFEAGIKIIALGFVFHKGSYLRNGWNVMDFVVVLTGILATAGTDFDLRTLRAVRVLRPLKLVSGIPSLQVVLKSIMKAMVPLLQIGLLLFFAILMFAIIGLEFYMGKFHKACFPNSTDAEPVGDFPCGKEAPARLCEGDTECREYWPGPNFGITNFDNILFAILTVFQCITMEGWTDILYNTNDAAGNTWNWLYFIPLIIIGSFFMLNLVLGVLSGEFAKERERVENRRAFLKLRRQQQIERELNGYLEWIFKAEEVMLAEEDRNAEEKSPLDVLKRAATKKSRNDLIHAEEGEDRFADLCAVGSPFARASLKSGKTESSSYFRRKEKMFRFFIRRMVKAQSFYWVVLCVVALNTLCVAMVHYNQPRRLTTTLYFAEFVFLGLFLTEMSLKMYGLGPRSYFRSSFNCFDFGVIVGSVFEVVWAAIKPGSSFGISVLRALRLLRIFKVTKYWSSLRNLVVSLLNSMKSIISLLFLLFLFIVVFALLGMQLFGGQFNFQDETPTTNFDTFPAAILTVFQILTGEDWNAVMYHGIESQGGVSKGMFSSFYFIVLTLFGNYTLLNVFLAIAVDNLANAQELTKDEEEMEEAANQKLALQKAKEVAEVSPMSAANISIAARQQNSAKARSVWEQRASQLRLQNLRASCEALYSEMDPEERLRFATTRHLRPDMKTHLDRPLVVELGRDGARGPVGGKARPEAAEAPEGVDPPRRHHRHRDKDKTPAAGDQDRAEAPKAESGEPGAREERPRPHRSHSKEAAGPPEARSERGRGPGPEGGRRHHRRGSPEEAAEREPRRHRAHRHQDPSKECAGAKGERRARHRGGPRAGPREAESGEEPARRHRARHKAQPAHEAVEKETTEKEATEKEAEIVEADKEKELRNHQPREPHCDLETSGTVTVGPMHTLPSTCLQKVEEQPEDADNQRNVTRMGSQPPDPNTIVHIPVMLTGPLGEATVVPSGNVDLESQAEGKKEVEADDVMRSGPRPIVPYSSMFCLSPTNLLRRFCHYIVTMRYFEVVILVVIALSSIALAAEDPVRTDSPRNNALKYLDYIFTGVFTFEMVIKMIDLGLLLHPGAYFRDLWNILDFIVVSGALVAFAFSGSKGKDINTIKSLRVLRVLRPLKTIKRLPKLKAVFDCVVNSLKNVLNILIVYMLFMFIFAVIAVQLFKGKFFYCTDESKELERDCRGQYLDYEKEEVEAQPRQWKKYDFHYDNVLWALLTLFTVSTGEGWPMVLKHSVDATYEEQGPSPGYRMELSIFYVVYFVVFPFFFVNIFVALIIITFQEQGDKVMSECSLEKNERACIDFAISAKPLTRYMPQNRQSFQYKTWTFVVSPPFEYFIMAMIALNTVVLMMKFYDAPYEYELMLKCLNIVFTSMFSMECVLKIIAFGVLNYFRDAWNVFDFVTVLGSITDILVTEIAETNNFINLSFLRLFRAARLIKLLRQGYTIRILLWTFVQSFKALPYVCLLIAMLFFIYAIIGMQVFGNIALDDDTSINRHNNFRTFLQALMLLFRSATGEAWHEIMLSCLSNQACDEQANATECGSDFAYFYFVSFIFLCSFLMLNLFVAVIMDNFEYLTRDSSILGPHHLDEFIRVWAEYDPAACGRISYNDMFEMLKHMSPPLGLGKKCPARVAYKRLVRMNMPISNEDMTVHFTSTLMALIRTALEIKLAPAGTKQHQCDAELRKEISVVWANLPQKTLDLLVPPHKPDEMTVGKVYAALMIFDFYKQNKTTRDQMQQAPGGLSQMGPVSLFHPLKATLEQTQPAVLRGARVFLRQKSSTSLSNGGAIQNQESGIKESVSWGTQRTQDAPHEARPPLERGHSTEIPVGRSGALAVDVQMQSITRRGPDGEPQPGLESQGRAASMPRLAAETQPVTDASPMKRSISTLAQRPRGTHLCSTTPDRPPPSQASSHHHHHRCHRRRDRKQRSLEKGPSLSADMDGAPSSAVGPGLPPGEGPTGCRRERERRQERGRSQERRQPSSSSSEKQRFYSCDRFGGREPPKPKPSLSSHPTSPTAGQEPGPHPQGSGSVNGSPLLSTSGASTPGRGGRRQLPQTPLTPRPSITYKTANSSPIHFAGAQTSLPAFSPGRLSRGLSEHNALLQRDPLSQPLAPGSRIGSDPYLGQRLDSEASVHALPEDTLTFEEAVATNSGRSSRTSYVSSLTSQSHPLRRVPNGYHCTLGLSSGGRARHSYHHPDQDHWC
T1 sequence (Q02410 whole entry): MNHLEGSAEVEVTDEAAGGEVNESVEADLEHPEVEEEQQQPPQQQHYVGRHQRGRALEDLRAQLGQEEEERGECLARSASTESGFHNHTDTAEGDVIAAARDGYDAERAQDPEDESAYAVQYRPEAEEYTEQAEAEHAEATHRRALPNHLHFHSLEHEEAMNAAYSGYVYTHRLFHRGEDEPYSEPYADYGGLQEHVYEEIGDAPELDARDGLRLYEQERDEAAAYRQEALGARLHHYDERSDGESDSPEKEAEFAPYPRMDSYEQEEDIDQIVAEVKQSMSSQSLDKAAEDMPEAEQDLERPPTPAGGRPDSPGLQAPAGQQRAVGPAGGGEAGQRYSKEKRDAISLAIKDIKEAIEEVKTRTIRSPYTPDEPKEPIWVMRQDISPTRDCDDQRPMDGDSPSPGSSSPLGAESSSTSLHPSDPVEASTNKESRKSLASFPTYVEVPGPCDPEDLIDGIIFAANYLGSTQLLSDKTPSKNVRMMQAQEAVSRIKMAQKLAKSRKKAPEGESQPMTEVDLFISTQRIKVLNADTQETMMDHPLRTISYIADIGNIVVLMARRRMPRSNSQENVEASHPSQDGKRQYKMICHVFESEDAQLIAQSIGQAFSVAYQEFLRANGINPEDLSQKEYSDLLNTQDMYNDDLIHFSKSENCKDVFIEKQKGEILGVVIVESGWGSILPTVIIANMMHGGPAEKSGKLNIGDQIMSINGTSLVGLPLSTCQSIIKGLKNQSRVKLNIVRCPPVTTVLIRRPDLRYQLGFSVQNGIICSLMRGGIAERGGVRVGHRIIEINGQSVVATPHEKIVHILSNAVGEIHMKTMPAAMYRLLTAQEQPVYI
FAD-linked sulfhydryl oxidase ALR, sequence (P55789 whole entry): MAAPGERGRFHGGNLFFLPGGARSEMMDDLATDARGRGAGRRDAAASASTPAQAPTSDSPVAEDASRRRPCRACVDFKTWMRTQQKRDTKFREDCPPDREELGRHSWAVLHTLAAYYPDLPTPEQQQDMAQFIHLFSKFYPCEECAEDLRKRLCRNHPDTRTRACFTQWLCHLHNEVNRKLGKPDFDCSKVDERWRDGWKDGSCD
Trypsin, sequence (P00761 whole entry): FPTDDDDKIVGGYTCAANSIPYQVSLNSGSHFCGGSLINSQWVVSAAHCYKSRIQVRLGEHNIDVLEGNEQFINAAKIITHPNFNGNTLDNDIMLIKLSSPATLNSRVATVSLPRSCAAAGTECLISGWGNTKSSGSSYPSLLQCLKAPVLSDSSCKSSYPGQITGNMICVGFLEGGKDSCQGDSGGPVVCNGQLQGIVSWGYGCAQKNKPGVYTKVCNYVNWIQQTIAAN

Cc1ccccc1-c1cc(C(=O)Nc2sc(C(=O)OC(C)C)c(C)c2C#N)c2ccccc2n1
EC50 [1]: 14.6 µM (active) | EC50 (BJ [2]): > 150 µM (not active) | IC50 [3]: 17.9 µM (active) | EC50 (Streptokinase A): > 150 µM (not active) | EC50 (BJ [4]): > 150 µM (inconclusive) | IC50 [5]: > 50 µM (inactive) | EC50 (BJ [6]): > 75 µM (inconclusive) | EC50 [7]: 42.3 µM (active) | EC50 (Streptococcus): 26 µM (active) | AC50 [8]: 0.246 µM (active) | IC50 [9]: 45.6 µM (inactive) | IC50 (Galanin receptor type 3): 0.967 µM (active) | EC50 (cells): > 29.9 µM (inactive)

CCN=C(S)Nc1cccc(S(=O)(=O)Nc2ccccc2OC)c1
EC50 [10]: > 50 µM (active)

Cc1ccccc1NC(=O)C1CCCN(c2ncnc3onc(-c4ccc(F)cc4)c23)C1 (centres undefined)
IC50 [11]: > 43.8 µM (not active) | IC50 [12]: > 43.8 µM (not active)

Cc1ccc(CN2C(=O)c3ccccc3Sc3ccc(C(=O)NCCCN4CCOCC4)cc32)cc1
IC50 [11]: 6.89 µM (active) | IC50 [12]: 10.4 µM (not active)

CN(Cc1c(C(=O)N/N=C/c2cccc(O)c2)nnn1-c1nonc1N)c1ccccc1
IC50 (CHO-K1): > 66.2 µM (inactive) | IC50 [13]: 24.2 µM (inactive) | IC50 [14]: 1.04 µM (active) | IC50 [15]: 5.74 µM (active)

CC(=O)c1c(N2CCN(c3cccc(Cl)c3)CC2)nc(=S)n(-c2ccccc2)c1C
EC50 [10]: > 50 µM (active)

Cc1ccc(S(=O)(=O)Nc2ccc3c(c2)n(C)c(=O)n3C)cc1
IC50 [9]: > 80 µM (inactive)

COc1ccc(Oc2c(Cl)cnn(-c3ccc(C(C)(C)C)cc3)c2=O)cc1
IC50 [16]: 2.7 µM (active)

O=C(CCNc1ccccc1)c1cccc([N+](=O)[O-])c1
CC50 [17]: 25.6 µM (active) | IC50 [18]: 14.1 µM (not active) | IC50 [19]: 39.5 µM (active) | AC50 [20]: 5.58 µM (active)

COc1ccc(Oc2c(-c3cccs3)cnn(-c3ccc(C)cc3)c2=O)cc1
IC50 [16]: > 20 µM (inactive)

COc1ccc(N(C(=O)c2cccnc2)S(=O)(=O)c2cccc([N+](=O)[O-])c2)cc1
EC50 [10]: > 50 µM (active)

Cc1ccc(C(=O)CSc2nnc(COc3ccccc3)o2)cc1
IC50 [9]: > 80 µM (inactive)

CCOc1cc(-c2nc3c(C)cccn3c2NCC2CCCO2)ccc1O.CNC (centres undefined)
AC50 (Trypsin): 12.7 µM (active) | AC50 (CAAX prenyl protease 2): 15.1 µM (active)
